Assay results reported in patent publication US10421743B2, “Tetrahydroisoquinolines as PRMT5 inhibitors” (CTXT PTY LTD, priority 2016, dated 2019).
Like-named read-outs stand apart in the source and are kept apart here.

Key:
[1] = target: Full-length PRMT5 enzyme co-expressed with His6-MEP50 (Homo sapiens (Human), UniProt O14744); test: PRMT5 Biochemical Assay (Transcreener EPIGEN methyltransferase, fluorescence polarisation); conditions: histone H4 derived peptide substrate 1 μM, 1 μM S-Adenosyl methionine, 4 hours at 37 degree Celsius
Sequence of Full-length PRMT5 enzyme co-expressed with His6-MEP50 (O14744 whole entry): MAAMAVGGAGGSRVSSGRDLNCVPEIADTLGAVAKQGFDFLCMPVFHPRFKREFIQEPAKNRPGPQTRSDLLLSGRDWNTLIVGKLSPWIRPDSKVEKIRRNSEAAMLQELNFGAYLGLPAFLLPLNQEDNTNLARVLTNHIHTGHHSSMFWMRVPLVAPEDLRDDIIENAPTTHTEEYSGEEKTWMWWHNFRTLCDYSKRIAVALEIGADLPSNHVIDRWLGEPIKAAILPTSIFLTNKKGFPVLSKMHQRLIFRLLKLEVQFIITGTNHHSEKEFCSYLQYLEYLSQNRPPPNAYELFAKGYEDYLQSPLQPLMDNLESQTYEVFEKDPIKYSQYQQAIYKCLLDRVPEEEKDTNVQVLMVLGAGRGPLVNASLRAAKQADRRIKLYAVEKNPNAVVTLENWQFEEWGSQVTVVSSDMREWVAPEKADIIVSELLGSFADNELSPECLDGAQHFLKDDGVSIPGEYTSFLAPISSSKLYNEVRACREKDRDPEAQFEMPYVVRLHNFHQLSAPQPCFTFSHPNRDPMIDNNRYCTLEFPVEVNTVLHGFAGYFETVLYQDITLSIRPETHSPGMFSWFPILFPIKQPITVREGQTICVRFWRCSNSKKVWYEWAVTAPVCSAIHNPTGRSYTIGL
Sequence of Full-length PRMT5 enzyme co-expressed with His6-MEP50 (Q9BQA1 whole entry partner): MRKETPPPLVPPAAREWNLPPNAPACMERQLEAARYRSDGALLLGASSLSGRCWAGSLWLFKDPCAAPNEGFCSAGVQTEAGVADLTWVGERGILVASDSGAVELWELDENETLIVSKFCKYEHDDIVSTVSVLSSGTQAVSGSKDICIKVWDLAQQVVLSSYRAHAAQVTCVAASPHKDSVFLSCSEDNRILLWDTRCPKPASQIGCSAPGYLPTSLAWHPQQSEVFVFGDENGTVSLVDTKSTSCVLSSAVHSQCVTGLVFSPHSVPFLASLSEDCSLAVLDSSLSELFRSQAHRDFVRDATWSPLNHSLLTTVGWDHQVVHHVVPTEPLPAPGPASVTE
Description: Compounds of the Invention may be Tested for In Vitro Activity in the Following Assay:
A histone H4 derived peptide is used as substrate (amino acid sequence: […]NH2). Full-length PRMT5 enzyme (NCBI Reference sequence NP_006100.2) was co-expressed with His6-MEP50 in insect cells and purified via Nickel immobilized metal affinity and gel filtration chromatography (“the enzyme”).
The 6 μL reactions are run in Greiner brand black 384-well low volume assay plates. All reactions contained assay buffer (phosphate buffered saline, 0.01% (v/v) Tween-20, 0.01% (w/v) albumin from chicken egg white, 1 mM Dithiothreitol, 1 μM peptide substrate, 1 μM S-Adenosyl methionine, and 15 ng/reaction enzyme, with the enzyme being omitted from negative control reactions. Compounds were added in a volume of 100 nL from dilution series prepared in DMSO, positive and negative control reactions receiving the same volume DMSO without compound. The plates were sealed with adhesive seals and incubated for 4 hours at 37 degree Celsius. Reaction progress was measured using the Transcreener™ EPIGEN methyltransferase assay (BellBrook Labs, Madison, Wis.) as recommended by the manufacturer. To each reaction 2 μL detection mix were added, containing coupling enzymes, fluorescence polarisation tracer, and AMP antibody. Plates were incubated for 90 minutes before being read on a Perkin Elmer EnVision™ plate reader in fluorescence polarisation mode. IC50 values were obtained from the raw readings by calculating percent inhibition (% I) for each reaction relative to controls on the same plate (% I=(I−CN)/(CP−CN) where CN/CP are the averages of the negative/positive reactions, respectively), then fitting the % I data vs. compound concentration [I] to % I=(A+((B−A)/(1+((C/[I])^D)))) where A is the lower asymptote, B is the upper asymptote, C is the IC50 value, and D is the slope.

[2] = target: Full-length (FL)-PRMT5-MEP50 enzyme complex (Homo sapiens (Human), UniProt O14744); test: PRMT5-MEP50 Enzyme Methylation Assay (SAMDI); format: biochemical; conditions: 0.5 nM PRMT5-MEP50, 75 nM biotinylated H4R3(Me1) peptide, 15 μM SAM, 150 minutes at 37° C.
Sequence of Full-length (FL)-PRMT5-MEP50 enzyme complex (O14744 whole entry): as the sequence (O14744 whole entry) above
Sequence of Full-length (FL)-PRMT5-MEP50 enzyme complex (Q9BQA1 whole entry partner): as the sequence (Q9BQA1 whole entry partner) above
Description: PRMT5-MEP50 Enzyme Methylation Assay
PRMT5/MEP50 biochemical assay is a direct measurement of the methylation activity of the enzyme complex on a short peptide substrate derived from the N-terminus of H4 histone. Methylation experiment is performed with recombinant protein. The assessment of inhibitory effect (IC50) of small molecules is measured by the effectiveness of the compounds to inhibit this reaction.
In this assay, the potency (IC50) of each compound was determined from a twenty-point (1:2 serial dilution; top compound concentration of 100000 nM) titration curve using the following outlined procedure. To each well of a white ProxiPlus 384 well-plate, 100 nL of compound (1% DMSO in final assay volume of 10 μL) was dispensed, followed by the addition of 8 μL of 1× assay buffer (50 mM Bicine pH 8.0, 1 mM DTT, 0.004% Tween20, 0.01% BSA) containing 0.5 nM of Full-length (FL)-PRMT5-MEP50 enzyme complex (recombinant proteins from baculovirus-transfected Sf21 cells: FL-PRMT5; MW=[…] and FL-MEP50; MW=38614). Plates were sealed and placed in a 37° C. humidified chamber for 30 minutes pre-incubation with compounds. Subsequently, each reaction was initiated by the addition of 2 μL 1× assay buffer containing 75 nM biotinylated H4R3(Me1) peptide, and 15 μM S-(5′-Adenosyl)-L-Methionine Chloride (SAM). The final reaction in each well of 10 μL consists of 0.5 nM PRMT5-MEP50,75 nM biotinylated-peptide, and 15 μM SAM. Methylation reactions were allowed to proceed for 150 minutes in a sealed plate at 37° C. Reactions were immediately quenched by the addition of 1 μL of 10% formic acid. Plates were then frozen and shipped to SAMDI™ Tech Inc. to determine the percent conversion from […]. IC50 values were determined by 7 parameters biphasic fit model plotting the percent product conversion vs. (Log10) compound concentrations.

[3] = system: PRMT5 (symmetric dimethylation of arginine (SDMA) in MCF-7 cells); test: PRMT5 Cell Target Engagement (TE) Assay (SDMA, high content imaging); format: cell-based; conditions: Homo sapiens, MCF7, 72 h, treated for 3 days, top compound concentration of 10000 nM
Text: PRMT5 Cell Target Engagement (TE) Assay
The PRMT5 TE assay is a biomarker assay for identifying compounds that inhibit symmetric dimethylation of arginine (SDMA) of PRMT5 substrates. This assay detects symmetrically dimethylated nuclear proteins using high content imaging technology. Detection of the expression of symmetrically dimethylated nucleo proteins is through a mixture of primary rabbit monoclonal antibodies to SDMA (CST 13222), which in turn recognized by an Alexafluor 488 dye-conjugated anti-rabbit IgG secondary antibody. The IN Cell Analyzer 2200 measures nuclear Alexafluor 488 fluorescent dye intensity that is directly related to the level of expression of symmetrically dimethylated nuclear proteins at the single cell level. Nuclear AF488 dye intensities are compared to the mean value for DMSO treated cells […] to report percent of inhibition for each compound-treated well.
In this assay, the cell potency (EC50) of each compound was determined from a ten point (1:3 serial dilution; top compound concentration of 10000 nM) titration curve using the following outlined procedure. Each well of a BD falcon collagen coated black/clear bottom 384-well plate was seeded with 4000 MCF-7 cells and allowed to attach for 5 hours. Media from cell plate was removed at 0.5 mm above the bottom of the plate and replaced with 30 μL of fresh media containing 1.2× compounds in 0.1% DMSO. Cells were treated for 3 days in 37° C. CO2 incubator. On day 3, cells were fixed with Cytofix, permeabilized with 0.4% Triton-X-100/Cytofix, and washed with D-PBS without Ca/Mg. Cells were blocked with Licor Odessey blocking reagent for one hour at room temperature, followed by incubation with anti-SDMA (1:1000) antibody at 4° C. overnight. 1° antibody was removed, followed by three washings with DPBS without Ca/Mg and 0.05% Tween20. Hoechst (5 μg/ml), Cell Mask deep stain (1:2000) and Alexa488-conjugated goat anti-rabbit IgG (2 μg/mL) was added for 1 hour at room temperature. A final washing step (three washes) was performed before sealing plate for imaging on In Cell Analyzer 2200. Images from analyzer were uploaded to Columbus (at WP) for image analysis. IC50 values were determined by 4 parameters robust fit of percent fluorescence units vs. (Log10) compound concentrations.

[4] = system: PRMT5 (symmetrical dimethylation of arginine in TE11 cells); test: PRMT5 Biomarker Assay (symmetrical dimethylation of arginine, Di-Methyl Histone H4 Arginine 3); format: cell-based; conditions: Homo sapiens, TE-11, 72 hours incubation, anti-Di-Methyl Histone H4 Arginine 3 antibody
Description: Compounds of the Invention may be Tested for Potency to Inhibit Symmetrical Dimethylation of Arginine in the Following Assay:
The cell line TE11 was seeded at a density of 6,000 cells per well in 96 well optical quality tissue culture plates in DME medium and 10% foetal bovine serum, and allowed to adhere for 5 hours under standard culture conditions (37 degree Celsius, 5% CO2). Compound dilutions prepared in DMSO were added to the medium, with negative control wells reserved for treatment with DMSO only and maximum inhibition controls receiving a potent PRMT5 inhibitor compound at 1 μM concentration. After incubation for 72 hours, the cells were fixed with 3.7% formaldehyde in PBS for 30 minutes at room temperature, washed with phosphate buffer saline and blocked with Odyssey blocking buffer (LI-COR, Lincoln, Nebr.). Rabbit anti-Di-Methyl Histone H4 Arginine 3 specific antibody (Epigentek) in Odyssey blocking buffer was added and incubated for 14 hours at 4 degree Celsius. After washing, anti-rabbit secondary antibody labelled with Alexa647 dye (LifeTechnologies) and Hoechst 33342 (1 μg/mL, SigmaAldrich) were added for 1 hour incubation. Plates were washed and read on a PerkinElmer Envision 2103 in fluorescence intensity scanning mode (24 scans across the well area). The plates were imaged on a PerkinElmer Phenix high content imaging platform. Using a Columbus image analysis pipeline, individual nuclei were located by Hoechst 33342 stain and the methylation level was calculated from the Alexa647-related intensity in the same area. IC50 values were obtained from the mean Alexa647-related intensity per cell by calculating percent inhibition (% I) for each well relative to controls on the same plate (% I=(I−CN)/(CP−CN) where CN/CP are the averages of the negative/maximum inhibition controls, respectively), then fitting the % I data vs. compound concentration [I] to % I=(A+((B−A)/(1+((C/[I])^D)))) where A is the lower asymptote, B is the upper asymptote, C is the IC50 value, and D is the slope.

[5] = Enzyme Methylation Assay (EC50—1, nM), first EC50 of biphasic fit

Row | Structure (SMILES) | IC50 [1] | EC50 [2, 5] | EC50 ([2]; Enzyme Methylation Assay (EC50—2, nM), second EC50 of biphasic fit) | EC50 [3] | IC50 [4] | EC50 ([2]; second EC50 of biphasic fit, read-out: Enzyme Methylation Assay (EC50—2))
1 | CCOc1cc(C(=O)N2C3CCC2COC3)ccc1C(=O)NC[C@@H](O)[C@@H]1Cc2ccc(OC)cc2CN1 [Example 1, 4-(3-Oxa-8-azabicyclo[3.2.1]octane-8-carbonyl)-2-ethoxy-N—((R)-2-hydroxy-2-((S)-7-methoxy-1,2,3,4-tetrahydroisoquinolin-3-yl)ethyl)benzamide] | 15 nM | 0.27 nM | 5 nM | 19 nM | 0.19 nM | –
2 | CCOc1cc(C(=O)N2C3CCC2COC3)ccc1C(=O)NC[C@@H](O)[C@@H]1Cc2ccccc2CN1C [Example 3, 4-(3-Oxa-8-azabicyclo[3.2.1]octane-8-carbonyl)-2-ethoxy-N—((R)-2-hydroxy-2-((S)-2-methyl-1,2,3,4-tetrahydroisoquinolin-3-yl)ethyl)benzamide 2,2,2-trifluoroacetate] | 1010 nM | 47 nM | – | 5440 nM | 7.12 nM | 574 nM
